Test results published in PubChem BioAssay AID328 (DTP/NCI, 2004).
Several values for one entry are separate records, joined by “and”; a condition that tells them apart may be missing. Equal entries are not always repeated. Inconclusive results and toxic doses are left out.

System: BDF1 mice, P388 leukemia ip, median survival T/C
Assay: NCI In Vivo Anticancer Drug Screen. Data for tumor model P388 Leukemia (intraperitoneal) in B6D2F1 (BDF1) mice
Conditions: endpoint: median survival time, higher = longer survival
In short: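 Antitumour effect was judged in vivo: survival in drug-treated mice, normalised to that of vehicle-dosed controls, gives the reported T/C.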

[1] = dose: 100.0 mg/kg/injection, schedule: Q01DX009 (ip), vehicle: saline with Tween-80
[2] = dose: 100.0 mg/kg/injection, schedule: Q04DX003 (ip), vehicle: saline
[3] = dose: 200.0 mg/kg/injection, schedule: Q04DX003 (ip), vehicle: saline
[4] = dose: 200.0 mg/kg/injection, schedule: Q01DX009 (ip), vehicle: saline with Tween-80
[5] = dose: 400.0 mg/kg/injection, schedule: Q01DX009 (ip), vehicle: saline with Tween-80
[6] = dose: 100.0 mg/kg/injection, schedule: Q04DX003 (ip), vehicle: saline with Tween-80
[7] = dose: 200.0 mg/kg/injection, schedule: Q04DX003 (ip), vehicle: saline with Tween-80
[8] = dose: 400.0 mg/kg/injection, schedule: Q04DX003 (ip), vehicle: saline with Tween-80
[9] = dose: 50.0 mg/kg/injection, schedule: Q01DX009 (ip), vehicle: saline with Tween-80

O=[N+]([O-])C(CO)(CO)CC(F)(F)F
T/C (dose: 3.13 mg/kg/injection, schedule: Q01DX009 (ip), vehicle: saline): 100 % of control
T/C (dose: 3.13 mg/kg/injection, schedule: Q04DX003 (ip), vehicle: saline): 100 % of control
T/C (dose: 6.25 mg/kg/injection, schedule: Q01DX009 (ip), vehicle: saline): 104 % of control
T/C (dose: 6.25 mg/kg/injection, schedule: Q04DX003 (ip), vehicle: saline): 100 % of control
T/C (dose: 12.5 mg/kg/injection, schedule: Q01DX009 (ip), vehicle: saline): 90 % of control

CC#CCOCC1CO1 (stereo unspecified)
T/C (dose: 66.0 mg/kg/injection, schedule: Q01DX009 (ip), vehicle: saline with Tween-80): 160 % of control
T/C [1]: 115 % of control
T/C [2]: 104 % of control
T/C [3]: 100 % of control

OCc1ccccc1
T/C [1]: 95 % of control
T/C [4]: 104 % of control
T/C [5]: 108 % of control

C/C=C/CCCCCCCC(=O)OCCCC
T/C [1]: 109 % of control
T/C [6]: 110 % of control
T/C [4]: 95 % of control
T/C [7]: 105 % of control
T/C [5]: 113 % of control
T/C [8]: 120 % of control

Oc1ccc(N=Cc2ccccc2O)cc1
T/C (dose: 100.0 mg/kg/injection, schedule: Q01DX009 (ip), vehicle: saline): 108 % of control
T/C [2]: 105 % of control
T/C [3]: 100 % of control
T/C (dose: 400.0 mg/kg/injection, schedule: Q04DX003 (ip), vehicle: saline): 110 % of control

CCC1(C)N=C(C)C(C)S1 (stereo unspecified)
T/C [6]: 100 % of control
T/C [7]: 100 % of control
T/C [8]: 109 % of control

COc1cc([C@@H]2c3cc4c(cc3[C@@H](OC3OC5COC(C)OC5C(O)C3O)[C@H]3COC(=O)[C@H]23)OCO4)cc(OC)c1O (stereo partly specified)
T/C (dose: 7.48 mg/kg/injection, schedule: Q04DX003 (ip), vehicle: other): 225 % of control
T/C (dose: 11.8 mg/kg/injection, schedule: Q04DX003 (ip), vehicle: Klucel (hydroxypropylcellulose) (HPC)): 533 % of control
T/C (dose: 11.8 mg/kg/injection, schedule: Q04DX003 (ip), vehicle: saline): 170 % of control
T/C (dose: 12.0 mg/kg/injection, schedule: Q04DX003 (ip), vehicle: saline): 287 % of control
T/C (dose: 12.5 mg/kg/injection, schedule: Q04DX003 (ip), vehicle: other): 266 % of control
T/C (dose: 17.8 mg/kg/injection, schedule: Q04DX003 (ip), vehicle: Klucel (hydroxypropylcellulose) (HPC)): 535 % of control
T/C (dose: 17.8 mg/kg/injection, schedule: Q04DX003 (ip), vehicle: saline): 200 % of control
T/C (dose: 18.0 mg/kg/injection, schedule: Q04DX003 (ip), vehicle: Klucel (hydroxypropylcellulose) (HPC)): 476 % of control
T/C (dose: 18.0 mg/kg/injection, schedule: Q04DX003 (ip), vehicle: saline): 548 % of control
T/C (dose: 22.08 mg/kg/injection, schedule: Q04DX003 (ip), vehicle: other): 490 % of control
T/C (dose: 27.0 mg/kg/injection, schedule: Q04DX003 (ip), vehicle: Klucel (hydroxypropylcellulose) (HPC)): 535 % of control
T/C (dose: 27.0 mg/kg/injection, schedule: Q04DX003 (ip), vehicle: saline): 550 % of control and 222 % of control
T/C (dose: 30.0 mg/kg/injection, schedule: Q04DX003 (ip), vehicle: Klucel (hydroxypropylcellulose) (HPC)): 242 % of control
T/C (dose: 34.6 mg/kg/injection, schedule: Q04DX003 (ip), vehicle: other): 491 % of control
T/C (dose: 40.0 mg/kg/injection, schedule: Q04DX003 (ip), vehicle: saline): 550 % of control
T/C (dose: 40.5 mg/kg/injection, schedule: Q04DX003 (ip), vehicle: Klucel (hydroxypropylcellulose) (HPC)): 535 % of control
T/C (dose: 40.5 mg/kg/injection, schedule: Q04DX003 (ip), vehicle: saline): 300 % of control
T/C (dose: 60.0 mg/kg/injection, schedule: Q04DX003 (ip), vehicle: saline): 202 % of control

CCCN(Cc1ccc(CN(CCC)C(=O)C(Cl)Cl)cc1)C(=O)C(Cl)Cl
T/C [6]: 93 % of control
T/C [7]: 95 % of control
T/C [8]: 88 % of control

Cc1cc(NC(=O)NCc2ccc(N3C(N)=NC(N)=NC3(C)C)cc2)ccc1S(=O)(=O)F
T/C (dose: 2.1 mg/kg/injection, schedule: Q01DX009 (ip), vehicle: saline with Tween-80): 108 % of control
T/C (dose: 3.1 mg/kg/injection, schedule: Q01DX009 (ip), vehicle: saline with Tween-80): 113 % of control
T/C (dose: 4.8 mg/kg/injection, schedule: Q01DX009 (ip), vehicle: saline): 123 % of control
T/C (dose: 25.0 mg/kg/injection, schedule: Q01DX009 (ip), vehicle: saline): 172 % of control
T/C (dose: 45.0 mg/kg/injection, schedule: Q04DX003 (ip), vehicle: saline with Tween-80): 150 % of control
T/C (dose: 50.0 mg/kg/injection, schedule: Q01DX009 (ip), vehicle: saline): 209 % of control
T/C (dose: 100.0 mg/kg/injection, schedule: Q04DX003 (ip), vehicle: alcohol): 115 % of control
T/C (dose: 264.0 mg/kg/injection, schedule: Q04DX003 (ip), vehicle: saline): 195 % of control
T/C (dose: 400.0 mg/kg/injection, schedule: Q04DX003 (ip), vehicle: alcohol): 155 % of control

CC(=O)OCC(=O)[C@@]1(O)CC[C@H]2[C@@H]3C[C@H](C)C4=CC(=O)CC[C@]4(C)[C@H]3[C@@H](O)C[C@@]21C
T/C [5]: 90 % of control

COc1ccc(/C(C)=C\C(=O)O)cc1
T/C [6]: 100 % of control
T/C [7]: 100 % of control
T/C [8]: 95 % of control

CC(C)(C)C(=O)CC(O)(C(F)(F)Cl)C(F)(F)Cl
T/C [1]: 100 % of control
T/C [4]: 100 % of control

CCSCCCCSCC
T/C [6]: 104 % of control
T/C [7]: 104 % of control
T/C [8]: 100 % of control

CC1(C)O[C@@H]2C[C@H]3[C@@H]4CCC5=CC(=O)CC[C@]5(C)[C@@]4(F)[C@@H](O)C[C@]3(C)[C@]2(C(=O)CO)O1
T/C [6]: 108 % of control
T/C [7]: 108 % of control
T/C [8]: 100 % of control

O=c1c2cc3nc4ccccn4c(=O)c3cc2nc2ccccn12
T/C [9]: 91 % of control
T/C [1]: 86 % of control
T/C [4]: 91 % of control

CCOC(=O)C(N=C=S)C(C)CC (stereo unspecified)
T/C (dose: 100.0 mg/kg/injection, schedule: Q01DX001 (ip), vehicle: saline with Tween-80): 115 % of control
T/C (dose: 200.0 mg/kg/injection, schedule: Q01DX001 (ip), vehicle: saline with Tween-80): 107 % of control
T/C (dose: 400.0 mg/kg/injection, schedule: Q01DX001 (ip), vehicle: saline with Tween-80): 118 % of control

CC1=CC2=C(C=O)C(=O)[C@](C)(O)[C@@H](O)C2=CO1
T/C (dose: 44.0 mg/kg/injection, schedule: Q04DX003 (ip), vehicle: Klucel (hydroxypropylcellulose) (HPC)): 101 % of control
T/C (dose: 44.0 mg/kg/injection, schedule: Q04DX003 (ip), vehicle: saline with Tween-80): 108 % of control and 114 % of control
T/C (dose: 66.0 mg/kg/injection, schedule: Q04DX003 (ip), vehicle: Klucel (hydroxypropylcellulose) (HPC)): 115 % of control
T/C (dose: 66.0 mg/kg/injection, schedule: Q04DX003 (ip), vehicle: saline with Tween-80): 116 % of control
T/C (dose: 100.0 mg/kg/injection, schedule: Q04DX003 (ip), vehicle: Klucel (hydroxypropylcellulose) (HPC)): 108 % of control
T/C (dose: 150.0 mg/kg/injection, schedule: Q04DX003 (ip), vehicle: saline with Tween-80): 108 % of control
T/C [7]: 95 % of control

BrCC(Br)CBr
T/C [9]: 104 % of control
T/C (dose: 50.0 mg/kg/injection, schedule: Q04DX003 (ip), vehicle: saline with Tween-80): 100 % of control
T/C [1]: 122 % of control
T/C [6]: 100 % of control
T/C [7]: 104 % of control

C=CCCc1cc(C(=O)N(c2ccccc2)C(C(=O)O)c2ccccc2)ccc1OC (stereo unspecified)
T/C (dose: 100.0 mg/kg/injection, schedule: Q04DX002 (ip), vehicle: saline with Tween-80): 101 % of control
T/C (dose: 200.0 mg/kg/injection, schedule: Q04DX002 (ip), vehicle: saline with Tween-80): 100 % of control
T/C (dose: 400.0 mg/kg/injection, schedule: Q04DX002 (ip), vehicle: saline with Tween-80): 108 % of control

O=C(Nc1ccc(C2=NCCN2)cc1)c1ccc(C(=O)Nc2ccc(C3=NCCN3)cc2)c(Cl)c1
T/C (dose: 1.56 mg/kg/injection, schedule: Q01DX009 (ip), vehicle: saline with Tween-80): 152 % of control
T/C (dose: 3.13 mg/kg/injection, schedule: Q01DX009 (ip), vehicle: saline with Tween-80): 161 % of control
T/C (dose: 6.25 mg/kg/injection, schedule: Q01DX009 (ip), vehicle: saline with Tween-80): 189 % of control and 204 % of control
T/C (dose: 8.0 mg/kg/injection, schedule: Q01DX010 (ip), vehicle: water): 150 % of control and 160 % of control
T/C (dose: 10.0 mg/kg/injection, schedule: Q01DX010 (ip), vehicle: water): 154 % of control and 195 % of control
T/C (dose: 12.0 mg/kg/injection, schedule: Q01DX010 (ip), vehicle: water): 160 % of control and 170 % of control
T/C (dose: 12.5 mg/kg/injection, schedule: Q01DX009 (ip), vehicle: saline with Tween-80): 250 % of control and 200 % of control and 211 % of control
T/C (dose: 25.0 mg/kg/injection, schedule: Q01DX009 (ip), vehicle: saline with Tween-80): 270 % of control and 108 % of control
